Assay results published in patent US10100097B2, “GIP-GLP-1 dual agonist compounds and methods” (Zealand Pharma A/S, priority 2012, dated 2018).
Numbered stars: 1 amine (or outer) side, 2 acyl side, 3 side chain; on linkers, the order of the positions; unused ones are H or OH. Square brackets hold non-standard residues; d marks the D form. Side chains are listed from the residue outwards. Peptide text beside a SMILES is read from it. * marks the point of attachment. γGlu = O=C(O)[C@H](CCC(=O)[*:2])N[*:1]; Palmitoyl = CCCCCCCCCCCCCCCC(=O)*; Aib = CC(C)(N)C(=O)O

Experiments:
human GLP-1 R = molecular target: T1, human GLP-1 R (Homo sapiens, UniProt P43220); assay: Human GLP-1 receptor (GLP-1 R) activity assay, cAMP induction (AlphaScreen cAMP kit); assay type: cell-based; details: HEK293 cells expressing the human GLP-1 R, 15 min at 37° C., average values of multiple determinations, read-out: GLP1 R (EC50 in nM)
T1 construct: expressed in transfected cells
Summary of the method: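 Stable HEK293 clones expressing human GIP R or GLP-1 R, grown 1 day, washed in Tyrode's buffer (10 mM HEPES, pH 7.4), then stimulated with peptide. Cells lysed and cAMP quantified by AlphaScreen competition with biotinylated cAMP, 1 h dark incubation at room temperature.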

Male C57BL/6J mice = assay: IPGTT (Intraperitoneal Glucose Tolerance Test) in mice; assay type: in vivo; details: for Effect on glucose tolerance as compared to vehicle: glucose 2 g/kg i.p., peptides s.c., all time points, p<0.05 vs. vehicle
Protocol: IPGTT (Intraperitoneal Glucose Tolerance Test) in Mice
Male C57BL/6J mice (Charles River, Germany) were maintained on normal chow (Altromin 1324, Brogaarden A/S, Gentofte, Denmark) and domestic quality water with added citric acid to pH˜3.6. The animals were housed pair-wise in a light-, temperature-, and humidity-controlled room (12:12 h light-dark cycle, with lights on at 06.00-18.00 hr; 20-22° C.; 50-80% relative humidity). Mice were fasted for 5 hr before the IPGTT. Peptides and vehicle were administered subcutaneously before the intraperitoneal injection of glucose (t=0 min; 2 g/kg; 5 ml/kg). Tail vein blood was sampled at time t=0 (before glucose administration), 15, 30, 45, 60, 90, and 120 min for measurements of blood glucose.

in vivo = details: C57BL/6J, mouse, plasma, sc, 200 nmol/kg
Protocol: C57BL/6J mice were given a single subcutaneous dose of 200 nmol/kg body weight of each peptide to be tested. Blood samples were drawn 0.5, 2, 4, 6, 8, 16, 24 and 36 hours post-dose by sublingual bleeding. At each time point, samples from two mice were taken, i.e. 16 mice per compound. The mice were euthanized immediately after blood sampling by cervical dislocation. Plasma samples were analyzed after solid phase extraction (SPE) by liquid chromatography mass spectrometry (LC-MS/MS).

human GIP R = molecular target: T2, human GIP R (Homo sapiens, UniProt P48546); assay: Human GIP receptor (GIP R) activity assay, cAMP induction (AlphaScreen cAMP kit); assay type: cell-based; details: HEK293 cells expressing the human GIP R; cAMP induction, 15 min at 37° C.; average values of multiple determinations; read-out: GIP R (EC50 in nM)
T2 construct: expressed in transfected cells
T2 sequence (P48546 22-466): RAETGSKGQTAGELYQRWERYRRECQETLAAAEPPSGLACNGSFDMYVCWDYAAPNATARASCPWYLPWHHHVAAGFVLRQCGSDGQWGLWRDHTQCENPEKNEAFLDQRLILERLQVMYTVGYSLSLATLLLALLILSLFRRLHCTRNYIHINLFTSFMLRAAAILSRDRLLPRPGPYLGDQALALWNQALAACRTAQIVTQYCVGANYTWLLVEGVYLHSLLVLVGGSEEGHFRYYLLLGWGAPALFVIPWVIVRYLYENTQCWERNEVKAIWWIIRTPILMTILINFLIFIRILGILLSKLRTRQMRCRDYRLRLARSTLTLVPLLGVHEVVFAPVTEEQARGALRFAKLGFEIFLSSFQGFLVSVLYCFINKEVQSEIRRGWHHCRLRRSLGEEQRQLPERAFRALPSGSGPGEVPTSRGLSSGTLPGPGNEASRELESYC
Protocol: Human GIP Receptor (GIP R) and GLP-1 Receptor (GLP-1 R) Activity Assay
In vitro effects of peptide conjugates of the invention were assessed by measuring the induction of cAMP following stimulation of the respective receptor by GIP, GLP1 or analogues of these, as outlined in the invention, using the AlphaSceen® cAMP kit from Perkin-Elmer according to instructions. Briefly. HEK293 cells expressing the human GIP R or GLP-1 R (stable cell lines generated through transfection of the cDNA for human GIP R or GLP-1 and selection of stable clones) were seeded at 30,000 cells/well in 96-well microtiter plates coated with 0.01% poly-L-lysine, and grown for 1 day in culture in 200 μl growth medium (DMEM, 10% FCS, Penicillin (100 IU/ml), Streptomycin (100 μg/ml)). On the day of analysis, growth medium was removed and the cells were washed once with […] Tyrode's buffer (Tyrode's Salts (9.6 g/1), 10 mM HEPES, pH 7.4). […] The Assay buffer was removed and cells are lysed in 80 μl Lysis buffer (0.1% w/v BSA, 5 mM HEPES, 0.3% v/v Tween-20) per well. From each well 10 μl lysed cells was transferred to a 384-well plate and mixed with 15 μl bead-mix (1 Unit/15 μl anti-cAMP Acceptor Beads, 1 Unit/15 μl Donor Beads, and 1 Unit/15 μl Biotinylated cAMP in Assay Buffer). The plates were mixed and incubated in the dark for an hour at room temperature before measuring using an Envision™ plate reader (Perkin-Elmer).

T1 sequence (P43220 24-463): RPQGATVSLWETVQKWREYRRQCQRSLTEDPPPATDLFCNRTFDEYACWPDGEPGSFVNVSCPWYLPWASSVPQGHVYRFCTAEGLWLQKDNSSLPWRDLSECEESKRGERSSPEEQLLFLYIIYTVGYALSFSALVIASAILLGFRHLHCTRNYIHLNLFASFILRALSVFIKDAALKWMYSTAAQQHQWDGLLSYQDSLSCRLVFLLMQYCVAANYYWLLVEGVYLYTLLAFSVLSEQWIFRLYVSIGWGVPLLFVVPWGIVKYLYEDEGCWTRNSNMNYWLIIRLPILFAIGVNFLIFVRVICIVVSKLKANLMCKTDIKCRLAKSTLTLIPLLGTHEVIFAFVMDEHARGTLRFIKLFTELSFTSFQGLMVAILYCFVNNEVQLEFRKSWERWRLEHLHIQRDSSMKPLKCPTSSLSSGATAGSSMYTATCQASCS

CCCCCCCCCCCCCCCC(=O)N[C@@H](CCC(=O)NCCCC[C@H](NC(=O)[C@H](CCCCN)NC(=O)[C@H](CC(=O)O)NC(=O)[C@H](CC(C)C)NC(=O)C(C)(C)NC(=O)[C@@H](NC(=O)[C@H](CO)NC(=O)[C@H](Cc1ccc(O)cc1)NC(=O)[C@H](CC(=O)O)NC(=O)[C@H](CO)NC(=O)[C@@H](NC(=O)[C@H](Cc1ccccc1)NC(=O)[C@@H](NC(=O)CNC(=O)[C@H](CCC(=O)O)NC(=O)C(C)(C)NC(=O)[C@@H](N)Cc1ccc(O)cc1)[C@@H](C)O)[C@@H](C)O)[C@@H](C)CC)C(=O)N[C@@H](C)C(=O)N[C@@H](CCC(N)=O)C(=O)N[C@@H](CCCNC(=N)N)C(=O)N[C@@H](C)C(=O)N[C@@H](Cc1ccccc1)C(=O)N[C@H](C(=O)N[C@@H](CCC(=O)O)C(=O)N[C@@H](Cc1c[nH]c2ccccc12)C(=O)N[C@@H](CC(C)C)C(=O)N[C@@H](CC(C)C)C(=O)N[C@@H](C)C(=O)N[C@@H](CCC(N)=O)C(=O)NCC(=O)N1CCC[C@H]1C(=O)N[C@@H](CO)C(=O)N[C@@H](CO)C(=O)NCC(=O)N[C@@H](C)C(=O)N1CCC[C@H]1C(=O)N1CCC[C@H]1C(=O)N1CCC[C@H]1C(=O)N[C@@H](CO)C(N)=O)C(C)C)C(=O)O [Compound 32] (H-Y[Aib]EGTFTSDYSI[Aib]LDKK([γGlu-Palmitoyl])AQRAFVEWLLAQGPSSGAPPPS-NH2)
EC50 (human GLP-1 R): 0.018 nM
Effect on glucose tolerance as compared to vehicle (Male C57BL/6J mice): significantly improved glucose tolerance
half-life (in vivo): 3.4 h

CCCCCCCCCCCCCCCC(=O)N[C@@H](CCC(=O)NCCCC[C@H](NC(=O)[C@H](CCCCN)NC(=O)[C@H](CC(=O)O)NC(=O)[C@H](CC(C)C)NC(=O)[C@H](Cc1ccc(O)cc1)NC(=O)[C@@H](NC(=O)[C@H](CO)NC(=O)[C@H](Cc1ccc(O)cc1)NC(=O)[C@H](CC(=O)O)NC(=O)[C@H](CO)NC(=O)[C@@H](NC(=O)[C@H](Cc1ccccc1)NC(=O)[C@@H](NC(=O)CNC(=O)[C@H](CCC(=O)O)NC(=O)C(C)(C)NC(=O)[C@@H](N)Cc1ccc(O)cc1)[C@@H](C)O)[C@@H](C)O)[C@@H](C)CC)C(=O)N[C@@H](C)C(=O)N[C@@H](CCC(N)=O)C(=O)N[C@@H](CCCNC(=N)N)C(=O)N[C@@H](C)C(=O)N[C@@H](Cc1ccccc1)C(=O)N[C@H](C(=O)N[C@@H](CCC(=O)O)C(=O)N[C@@H](Cc1c[nH]c2ccccc12)C(=O)N[C@@H](CC(C)C)C(=O)N[C@@H](CC(C)C)C(=O)N[C@@H](C)C(=O)N[C@@H](CCC(N)=O)C(=O)NCC(=O)N1CCC[C@H]1C(=O)N[C@@H](CO)C(=O)N[C@@H](CO)C(=O)NCC(=O)N[C@@H](C)C(=O)N1CCC[C@H]1C(=O)N1CCC[C@H]1C(=O)N1CCC[C@H]1C(=O)N[C@@H](CO)C(N)=O)C(C)C)C(=O)O [Compound 33] (H-Y[Aib]EGTFTSDYSIYLDKK([γGlu-Palmitoyl])AQRAFVEWLLAQGPSSGAPPPS-NH2)
EC50 (human GLP-1 R): 0.031 nM
Effect on glucose tolerance as compared to vehicle (Male C57BL/6J mice): significantly improved glucose tolerance
Reduction in blood glucose compared with liraglutide (Male C57BL/6J mice; time t=60 min, p<0.05 vs. liraglutide): statistically significant greater reduction
half-life (in vivo): 3.7 h

CC[C@H](C)[C@H](NC(=O)[C@H](CO)NC(=O)[C@H](Cc1ccc(O)cc1)NC(=O)[C@H](CC(=O)O)NC(=O)[C@H](CO)NC(=O)[C@@H](NC(=O)[C@H](Cc1ccccc1)NC(=O)[C@@H](NC(=O)CNC(=O)[C@H](CCC(=O)O)NC(=O)C(C)(C)NC(=O)[C@@H](N)Cc1ccc(O)cc1)[C@@H](C)O)[C@@H](C)O)C(=O)N[C@@H](Cc1ccc(O)cc1)C(=O)N[C@@H](CC(C)C)C(=O)N[C@@H](CC(=O)O)C(=O)N[C@@H](CCCCN)C(=O)N[C@@H](CCCCN)C(=O)N[C@@H](C)C(=O)N[C@@H](C)C(=O)N[C@@H](Cc1c[nH]cn1)C(=O)N[C@@H](CC(=O)O)C(=O)N[C@@H](Cc1ccccc1)C(=O)N[C@H](C(=O)N[C@@H](CCC(=O)O)C(=O)N[C@@H](Cc1c[nH]c2ccccc12)C(=O)N[C@@H](CC(C)C)C(=O)N[C@@H](CC(C)C)C(=O)N[C@@H](CO)C(=O)N[C@@H](C)C(N)=O)C(C)C [Compound 42] (H-Y[Aib]EGTFTSDYSIYLDKKAAHDFVEWLLSA-NH2)
EC50 (human GIP R): 0.007 nM
EC50 (human GLP-1 R): 0.012 nM
